Experimental data published in patent US9278982B2, “Targeting human thymidylate kinase induces DNA repair toxicity in malignant tumor cells” (NATIONAL YANG-MING UNIVERSITY, priority 2010, dated 2016).

Key:
[1] = test system: various cancer cell lines; experiment: Colony formation assay after YMU1 and doxorubicin; format: cell-based, human; conditions: YMU1 72 h, doxorubicin 0.1 μM 4 h, 14 days of culture
Method: (§1) FIG. 16. In vitro and in vivo effect of YMU1 on doxorubicin sensitization. (A) A panel of cell lines were pre-treated with vehicle, YMU1 (compound 21), D6 (ethyl 4-(2-chloroacetyl)piperazine-1-carboxylate) or D7 (compound 28) for 3 days and were exposed to different concentration of doxorubicin for 4 h. […] The enhancement (fold) of doxorubicin sensitivity in each cell line was calculated. Data represent mean±s.d., n=3; each experiment was quadruplex. Inset indicates the IC50 value of doxorubicin in various cell lines. […] Following overnight culture, cells were refreshed with growth medium. After 14 days of culture, colonies were fixed, stained by crystal violet and counted. (C) HCT-116 p53^−/− cells were subcutaneously implanted in the right flank of Balb/c nude mice (each experimental group n=8). Arrow indicated the time of stopping drug treatment. The tumor volume was estimated as described in Methods of the Invention section. (D) After 2 weeks recovered from treatment, mice were sacrificed for tumor weight measurement. Data represent mean±s.e.m; **, P<0.01 by a two-tailed Student's t-test. (E) Ki 67 proliferation marker staining of tumor shown in left panel. Scale bar, 50 μm. (F) Model of doxorubicin sensitization by YMU1 in malignant cancer cells. […]

panel of cell lines = experiment: Doxorubicin sensitization, MTS viability assay, summary over the panel of cell lines; format: cell-based, human
Method: (§2) FIG. 16. In vitro and in vivo effect of YMU1 on doxorubicin sensitization. (A) A panel of cell lines were pre-treated with vehicle, YMU1 (compound 21), D6 (ethyl 4-(2-chloroacetyl)piperazine-1-carboxylate) or D7 (compound 28) for 3 days and were exposed to different concentration of doxorubicin for 4 h. […] The enhancement (fold) of doxorubicin sensitivity in each cell line was calculated. Data represent mean±s.d., n=3; each experiment was quadruplex. Inset indicates the IC50 value of doxorubicin in various cell lines. […] Following overnight culture, cells were refreshed with growth medium. After 14 days of culture, colonies were fixed, stained by crystal violet and counted. (C) HCT-116 p53^−/− cells were subcutaneously implanted in the right flank of Balb/c nude mice (each experimental group n=8). Arrow indicated the time of stopping drug treatment. The tumor volume was estimated as described in Methods of the Invention section. (D) After 2 weeks recovered from treatment, mice were sacrificed for tumor weight measurement. Data represent mean±s.e.m; **, P<0.01 by a two-tailed Student's t-test. (E) Ki 67 proliferation marker staining of tumor shown in left panel. Scale bar, 50 μm. (F) Model of doxorubicin sensitization by YMU1 in malignant cancer cells. Both R2/R1 and TMPK are recruited to the site of doxorubicin-induced double-strand breaks, where dATP, dGTP, dCTP, dTTP and dUTP are site-specific synthesized. Inhibition of TMPK decreases dTTP formation at DNA damage sites, causing futile DNA repair due to dUTP incorporation.
(§3) Next, various human cancer cell lines were treated with YMU1, D6 or D7 for 72 h to test the potential of TMPK inhibitor in doxorubicin sensitization. After exposure to different concentration of doxorubicin for 4 h, cells were refreshed for viability analysis after 2 days and the IC50 value for doxorubicin in each of the cell lines was determined (FIG. 16A and Table 2).
The ability of YMU1 to sensitize non-tumorigenic mammary cycling H184B5F5/M10, MCF10A, primary human mammary epithelial (HMEC) and primary renal epithelial (HREC) cells and IMR-90 embryonic lung fibroblasts to doxorubicin was much weaker.
(§4) Cells plated into a 96-well plate (10^3 cells/well) were treated and cell viability was measured by MTS assay (Promega) (Cory et al., 1991). An annexin V-fluorescein isothiocyanate (FITC) apoptosis kit (Calbiochem) was used to detect apoptosis. The cell cycle analysis was performed by staining cells with propidium iodide (PI) for fluorescence-activated cell sorter (FACS) analysis with CellQuest software.

dUTPase = target: T1, dUTPase (Homo sapiens, UniProt P33316); experiment: dUTPase activity assay; format: biochemical; conditions: 0.1 μg purified GST-dUTPase, 10 min incubation with YMU1
T1 construct: made in house; host or cells: E. coli JM109 (pGEX-2T-dUTPase (WT))
Method: FIG. 19. No effect of YMU1 on dUTPase activity. 0.1 μg of purified GST-dUTPase protein was incubated with the indicated concentration of YMU1 for 10 min prior to action using dUTPase activity analysis.
For detecting dUTPase activity, the EnzChek Pyrophosphate Assay kit (Invitrogen) was used for measuring the dUTPase activity following the manufacturer's instruction. […] Reaction mixtures were incubated at 37° C. for 3 minutes. Samples (15 μl each) were added to the reaction mixtures [715 μl dH2O, 50 μl 20× reaction buffer, 200 μl MESG substrate, 1 U purine nucleoside phosphorylase, 0.03 U inorganic pyrophosphatase] and incubated at 22° C. for 45 minutes. The absorbance at 360 nm was measured using an ELISA plate reader.

HCT-116 p53−/− cells = experiment: In vivo xenograft model, sensitization to low-dose doxorubicin; set-up: species or system Balb/c nude mice
Method: as §1
We also used an in vivo xenograft model to examine the effect of YMU1 as an adjuvant on sensitization to low-dose doxorubicin treatment. […] Two weeks after the last injections were administered, mice were sacrificed and tumor weights measured. […]
Female BALB/c AnN.Cg-Foxnl^nu/Crl Nurl mice 6-8 weeks of age (National Laboratory Animal Center, Taiwan) were used for the tumor xenograft model. […] The tumor size was measured every day after initiated drug treatment with an electronic caliper. […]
Monoclonal Ki 67 antibody (B56) was purchased from BD PharMingen. Paraffin-embedded tumor sections (5 μm) were incubated with the primary antibody, detected with a LSAB™ kit (DakoCytomation) according to the manufacturer's instructions and counterstained with hematoxylin.

[2] = test system: H184B5F5/M10, MCF-10A, MCF-7 and HCT-116 p53−/− cells
Method: (B) H184B5F5/M10 cells were seeded onto 100 mm-dish at 5,000 cells/dish. MCF-10A, MCF-7 and HCT-116 p53^−/− cells were seeded onto 6 well plate at 600 cells/well. Following overnight culture, cells were treated with various concentration of YMU1 or FdUrd thrice a week. After 14 days colonies were fixed, stained by crystal violet.
We also compared the effect of YMU1 and FdUrd on cell viability of non-tumorigenic mammary cycling cells, H184B5F5/M10 and MCF-10A and tumor lines, MCF-7 and HCT-116 p53^−/− cells.
After 14 days, colonies were fixed and stained by crystal violet and counted.

In vivo toxicity of YMU1 = experiment: In vivo toxicity of YMU1; set-up: species or system Balb/c mice
HCT-116p53+/+ = experiment: Doxorubicin sensitization, MTS viability assay; format: cell-based, human; conditions: doxorubicin sensitivity, YMU1 vs vehicle
Method: as §2, §3, §4

T1 sequence (P33316 1-164 isoform P33316-2): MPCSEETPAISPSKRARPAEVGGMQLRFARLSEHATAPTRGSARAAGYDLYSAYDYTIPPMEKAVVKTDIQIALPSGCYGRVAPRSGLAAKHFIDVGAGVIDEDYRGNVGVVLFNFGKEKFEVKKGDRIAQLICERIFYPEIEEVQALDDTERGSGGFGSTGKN

For `CCOC(=O)N1CCN(C(=O)Cn2sc3nc(C)cc(C)c3c2=O)CC1` [compound 21, Ethyl 4-(2-(4,6-dimethyl-3-oxoisothiazolo[5,4-b]pyridin-2(3H)-yl)acetyl) piperazine-1-carboxylate], which “lethal effects of doxorubicin (colony assay)” value [1] is on record?
Its value is “markedly enhanced the lethal effects of doxorubicin”.

And the “ability to sensitize to doxorubicin” value (panel of cell lines; non-tumorigenic H184B5F5/M10, MCF10A, HMEC, HREC cells and IMR-90 fibroblasts)?
Its value is “much weaker”.

What about the doxorubicin sensitization (panel of cell lines; two BRCA 1/2 deficient tumor cells defective in homologous recombination repair) of the same compound?
Its doxorubicin sensitization is “not responsive”.

And the “inhibition of dUTPase” value (dUTPase)?
Its value is “unable to inhibit dUTPase”.

And the “growth of tumors, YMU1 combined with doxorubicin” value (HCT-116 p53−/− cells; YMU1 15 mg/kg thrice a week + doxorubicin 1.25 mg/kg twice a week, i.p., 4 weeks)?
Its value is “much slower”.

What about the “tumor proliferation index (Ki 67 immunostaining), YMU1 combined with doxorubicin” value (HCT-116 p53−/− cells; combinatory treatment of YMU1 and doxorubicin) of the same compound?
Its value is “clearly reduced”.

And the “average tumor size relative to control mice, YMU1 combined with doxorubicin” value (HCT-116 p53−/− cells; two weeks after the last injections, YMU1 15 mg/kg thrice a week + doxorubicin 1.25 mg/kg twice a week, i.p.)?
Its value is 25%.

What about the “death of cells in colony assay” value [2] of the same compound?
Its value is “did not”.

And the Body weight (In vivo toxicity of YMU1; Pre-treat, n = 4, Mean ± SEM)?
Its Body weight is 19.93 ± 1.63 g.

And the Clinical observations (In vivo toxicity of YMU1; Treatment group n = 4, YMU1 4 weeks)?
The Clinical observations was “Nil”.

And the Body weight (In vivo toxicity of YMU1; Week -2, n = 4, Mean ± SEM)?
The Body weight was 20.88 ± 1.07 g.

What about the Body weight (In vivo toxicity of YMU1; Week-1, n = 4, Mean ± SEM) of the same compound?
Its Body weight is 20.48 ± 1.43 g.

And the Body weight (In vivo toxicity of YMU1; Week-3, n = 4, Mean ± SEM)?
The Body weight was 21.25 ± 1.13 g.

What about the Body weight (In vivo toxicity of YMU1; Week-4, n = 4, Mean ± SEM) of the same compound?
The Body weight was 21.30 ± 0.96 g.

What about the “mouse body weight” value (In vivo toxicity of YMU1; YMU1 4 weeks, 2-fold higher dose regimen than in the tumor xenograft study) of the same compound?
The value was “did not alter mouse body weight”.

And the “toxic effect in normal mice” value (In vivo toxicity of YMU1; YMU1 on its own, 4 weeks)?
The value was “produces no toxic effect”.

And the “Blood Chemistry, Alanine Aminotransferase” value (In vivo toxicity of YMU1; n = 4, Mean ± SEM)?
The value was 32.00 ± 2.45 U/L.

And the “Blood Chemistry, Alkaline Phosphatase” value (In vivo toxicity of YMU1; n = 4, Mean ± SEM)?
The value was 389.25 ± 20.79 U/L.

What about the “Blood Chemistry, Aspartate Aminotransferase” value (In vivo toxicity of YMU1; n = 4, Mean ± SEM) of the same compound?
Its value is 62.50 ± 5.26 U/L.

What about the “Blood Chemistry, Blood Urea Nitrogen” value (In vivo toxicity of YMU1; n = 4, Mean ± SEM) of the same compound?
Its value is 19.08 ± 3.25 mg/dL.

What about the “Blood Chemistry, Creatinine” value (In vivo toxicity of YMU1; n = 4, Mean ± SEM) of the same compound?
Its value is 0.10 ± 0.00 mg/dL.

And the “Blood Chemistry, Total protein” value (In vivo toxicity of YMU1; n = 4, Mean ± SEM)?
Its value is 5.48 ± 0.25 g/dL.

And the “Hematology, Hb” value (In vivo toxicity of YMU1; n = 4, Mean ± SEM)?
Its value is 16.25 ± 0.41 g/dl.

What about the “Hematology, PCV” value (In vivo toxicity of YMU1; n = 4, Mean ± SEM) of the same compound?
The value was 53.48 ± 2.50%.

And the “Blood Chemistry, Glucose” value (In vivo toxicity of YMU1; n = 4, Mean ± SEM, *P < 0.05)?
Its value is 136.25 ± 14.31* mg/dl.

And the Enhancement fold (HCT-116p53+/+)?
Its Enhancement fold is 6.3 fold.
